Reference: patent US11926826B2, “Twist signaling inhibitor compositions and methods of using the same” (City of Hope, priority 2016, dated 2024)

Columns and labels:
Vimentin mRNA = experiment: qPCR after YTZ3-15 delivery of siTwist in SUM 1315: Vimentin; assay type: cell-based, human; settings: delivered via YTZ3-15; after one day
Experimental: Cell Culture, Transfection, and Stable Cell Line Production. SUM 1315 breast cancer cells were obtained from ATCC (Manassas, VA). Cells were maintained at 37° C., 5% CO2, and 90% humidity in a tissue culture incubator. Media for SUM 1315 cells consisted of a 50-50 mixture of DMEM and F12 media, supplemented with 5 μg/ml insulin, 10 ng/ml EGF, 5% fetal bovine serum, and 1% penicillin/streptomycin. Cells were passaged using 0.25% trypsin (Genesee Scientific, San Diego, CA) every 2-3 days as they reached confluency. […]
Quantitative PCR. […] RNA quantity and quality was measured and analyzed (with 260/280 nm and 260/230 nm spectra measurements) using a NanoDrop ND-1000 (Thermo Fisher Scientific, Waltham, MA). […] Quantitative RT-PCR was performed in quadruplicate using Maxima SYBR Green Master Mix (Thermo Fisher Scientific, Waltham, MA) in 25 μl reactions. […] Data were analyzed using Bio-Rad iQ5 software using the 2^−ΔΔ^Ct method and normalized to Actin. […]

TWIST = TWIST knockdown after Lipofectamine 2000 transfection in A2780R (western blot); assay type: cell-based; settings: over three days post transfection
Experimental: Cell Culture. A2780R and all derivatives of Ovcar8 were grown in RPMI 1640 (Genesee Scientific, San Diego, CA) in a tissue culture incubator at 37° C., 5% CO2, and 90% humidity. Growth medium was supplemented with 10% fetal bovine serum and 1% penicillin/streptomycin. Cells were passaged every 2-4 days using 0.25% trypsin (Genesee Scientific). Where indicated, cells were transfected with Lipofectamine 2000 (Thermo Fisher, Waltham, MA) according to the manufacturer's instructions. A2780R cells are a cisplatin resistant derivative of A2780.
Western Blotting. Following siRNA treatment, cells were pelleted and lysed in RIPA buffer. Protein concentration was determined by BCA assay (Thermo Fisher). Following SDS-PAGE, protein was transferred to Amersham PVDF membrane (Genesee Scientific) using a BioRad Trans-Blot SD semi-dry transfer unit. Blots were then blocked in milk for one hour at room temperature or overnight at 4° C. Incubation with primary antibody took place for one hour at room temperature or overnight at 4° C. Antibodies were diluted in 5% milk, with 0.1-0.2% Tween-20. Antibodies used were TWIST 2c1a (Santa Cruz Biotechnology, Dallas, TX) at 1:250-1:500 dilution, β-Actin, A1978 (Sigma Aldrich, St. Louis, MO) at 1:2500-1:5000 dilution; and Horseradish Peroxidase (HRP) conjugated anti-mouse secondary antibodies. […]

TWIST1 = TWIST1 knockdown after Lipofectamine 2000 transfection of siRNA in MDA-MB-435S cells (western blot); assay type: cell-based, human; settings: unmodified vs passenger-strand modified si419
Experimental: Transient transfection of MDA-MB-435S GFP+ffluc was carried out using LIPOFECTAMINE® 2000 (Thermo Fisher Scientific, Waltham, MA) according to the manufacturer's instructions. LIPOFECTAMINE® 2000 transfection was used to confirm the functionality of the siRNA (si419 and si494) prior to testing their efficacy with MSNs. Transfection of siRNA with MSNs was carried out by incubating the MSNs with the siRNA overnight at 4° C. while rotating the tube constantly. The mixture consisted of 7 parts MSN (diluted to 500 ng/ul in sterile PBS) to 1 part siRNA (diluted to 10 uM). The final concentration for of MSNs and siRNA applied to cells was 17.5 ng/ul and 50 nM, respectively.
Western Blot. Following siRNA treatment described above, cells were lifted from tissue culture wells with 0.25% trypsin, pelleted, and lysed in RIPA buffer. Protein concentration was determined using a BCA Assay (Thermo Fisher Scientific). A total of 30 μg of protein per lane was run on 4% stacking and 12% resolving polyacrylamide gels. Following gel electrophoresis, protein was transferred to Immobilon-P PVDF membrane (Millipore, Billerica, MA) using a Trans-Blot SD Semi-Dry Transfer Cell (Bio-Rad, Hercules, CA). Membranes were then blocked with 5% dry milk dissolved in 1×PBS with 0.1% Tween-20. Antibodies were diluted in blocking buffer (1:250 for anti-TWIST1 and 1:2,500 for anti-Actin). […]

Substance: si419: anti-TWIST siRNA; passenger 5′-GGACAAGCUGAGCAAGAUU-3′ (SEQ ID No: 1), guide 5′-AAUCUUGCUCAGCUUGUCCUU-3′ (SEQ ID No: 2) (listed as RNA, chemistry not fully specified)
- Vimentin mRNA level (Vimentin mRNA): nearly undetectable
- TWIST expression (TWIST): completely inhibit TWIST expression
- knockdown (efficiency, FIG. 6) (TWIST1): approximately 80%
